Reference: patent US20160106747A1, “TREATING POSTOPERATIVE MECHANICAL STRESS WITH AN ECTOINE” (Bitop AG, priority 2008, published 2016)
“Also recorded” adds a separate entry of the source.

What was measured:
[1] = test system: Small intestine segments of rats; experiment: Cold ischemic storage (18 h, 4° C.) of rat small intestine segments in POLYSOL with or without ectoine, then in vitro reperfusion; conditions: for LDH liberation: ectoine (5 mg/kg) added to POLYSOL, 18 h at 4° C.
Method: Small intestine segments of rats were removed under standard conditions and immediately irrigated with a cold common salt solution and subsequently with a POLYSOL solution (supplied by Doorzand Medical Innovations, Amsterdam/NL). The small intestine segments removed were kept ischemically in 50 ml of nutrient solution at 4° C. for 18 hours; in half of these cases ectoine (5 mg/kg) was added to the POLYSOL solution. Following this storage time at 4° C. reperfusion of the small intestine segments took place in vitro at 37° C. using a modified KHB medium (5% Dextran 78, 0.95% KHB, 0.37 g/L CaCl2, 2 g/L glucose, 0.6 g/L dexamethasone, 70 mg/L atropine and 0.21% sodium bicarbonate). For oxygen supply purposes a mixture of 95% O2 and 5% CO2 was used. The partial pressure of the oxygen was constantly kept at more than 500 mm/hg. When reperfusion had been completed all tissue samples were deep-frozen at −80° C. in liquid nitrogen and examined to ascertain their condition, the lactate dehydrogenase (LDH) liberation and nitrite liberation as a measure of NO. Generally speaking, the formation of NOx is an indicator for (oxidative) stress to which a tissue sample is subjected.

[2] = test system: rats with TNBS-induced enteritis; experiment: Enteritis induced in rats with trinitrobenzol sulfonic acid (TNBS), oral ectoine; type: in vivo
Method: For the purpose of closer investigation an animal model involving rats was prepared to induce enteritis by administering 10 mg/kg of trinitrobenzol sulfonic acid in 50% ethanol using a light ether anesthesia. Lesions developed which were examined macroscopically four days later. Ectoine was administered orally in various doses (30 to 300 mg/kg) for one week before the rats were given TNBS and four days thereafter.

## CC1=N[C@H](C(=O)O)CCN1 [ectoine, (4S)-2-methyl-1,4,5,6-tetrahydropyrimidine-4-carboxylic acid]
[1]; after 15 min reperfusion
  LDH liberation: 8.8+/−3.42 U/I
[1]; after 30 min reperfusion
  LDH liberation: 25.4+/−8.2 U/I
[1]; ectoine-doped POLYSOL samples after reperfusion
  NOx− formation: 0.325 ± 1.05 mmol/L
[1]; tissue samples after 30-minute reperfusion, compared with samples in POLYSOL only
  condition of the microvilli (microscopic examination): much better condition; also recorded: considerably improved condition of the microvilli
[2]; TNBS 10 mg/kg in 50% ethanol, ectoine oral 30 to 300 mg/kg for one week before TNBS and four days thereafter, lesions examined four days later
  extent of the lesions (macroscopic examination): capable of alleviating the extent of the lesions
[2]; TNBS enteritis
  histopathological examination of the large intestine: protective effect of ectoine could be confirmed
[2]; TNBS enteritis, oral ectoine
  glutathione level in the large intestine: caused the glutathione level in the large intestine to go down
  myeloperoxidase activity: prevented changes of the myeloperoxidase activity
[2]; in the blood and in the tissue of the large intestine, TNBS enteritis
  level of mediators (IKAM-1, DNFα, IL-1β, IL-10, LTB4, PGE2): prevented changes of the level of various mediators
[2]; oral, doses of 30 to 300 mg/kg tested
  dose giving the maximum effect on lesions: 100 mg/kg
[2]; sulfasalazine 300 mg/kg as reference, TNBS enteritis
  effect compared with reference active agent sulfasalazine: comparable to that of sulfasalazine
